15 molecules from patent US8901118B2, “Compounds and methods for kinase modulation, and indications therefor” (Plexxikon Inc., priority 2010, dated 2014) can be followed below.

One assay addresses T1, BCR-FMS BaF3 cells (Homo sapiens, UniProt P07333).
T1 construct: fused on or other part: P11274 (Breakpoint cluster region protein)
T1 sequence (P07333 582-910): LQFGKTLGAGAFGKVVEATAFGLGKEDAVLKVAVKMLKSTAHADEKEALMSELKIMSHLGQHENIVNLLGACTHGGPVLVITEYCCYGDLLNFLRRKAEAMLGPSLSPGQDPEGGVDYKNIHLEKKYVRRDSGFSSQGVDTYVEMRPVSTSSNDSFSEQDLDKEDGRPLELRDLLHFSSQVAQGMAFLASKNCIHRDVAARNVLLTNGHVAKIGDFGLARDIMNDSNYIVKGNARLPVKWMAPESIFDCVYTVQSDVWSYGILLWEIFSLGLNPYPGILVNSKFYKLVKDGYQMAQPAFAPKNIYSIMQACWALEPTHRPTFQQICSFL
As to the kind of experiment: BaF3 BCR-FMS cell proliferation assay (ATPlite). The following applies: read-out: Inhibition of Cell Proliferation IC50, BCR/BaF3 Fms. The assay is classed as cell-based. On the procedure:
(§1) Compounds are assessed in a variety of cell based assays. For example BaF3 cells engineered with any of BCR-FMS, BCR-KIT, BCR-FLT3, BCR-NTRK1, BCR-NTRK2, and BCR-NTRK3, are used in cell proliferation assays to assess inhibitory activity of Fms, Kit, Flt-3, TrkA, TrkB, and TrkC, respectively. An MV-4-11 (leukemia) cell proliferation assay is used to assess inhibitory activity in Flt-3, and SKNSH (human neuroblastoma) cell proliferation assay is used to assess efficacy of Fms/Trk inhibitors. Additional cells may be assayed similarly to assess the efficacy of Fms/Trk inhibitors, such as MiaPaCa (human pancreatic cancer) and Capan-1 (human pancreatic carcinoma) cells. Reagent and assay conditions are as follows: • BaF3 cells: • Maintained in RPMI containing 10% FBS, 1% PenStrep, 1% NEAA, and 1% L-Glutamine, supplemented with 1 mg/mL G418 and 5% WEHI-CM (or recombinant murine IL-3). • Confluent cells are split 1:50 to 1:100 every 3-4 days. • MV-4-11 cells: • Maintained in Iscove's Modified Dulbecco's Medium containing 10% FBS. • Confluent cells are split 1:4 every 3-4 days. • SKNSH cells: RPMI containing 10% FBS. On day 1, cells are counted, then centrifuged in a conical tube for 5 minutes at 1000 rpm. The supernatant is removed and cells are re-suspended as follows: • BaF3: resuspend in growth media +1 mg/mL G418 (without WEHFIL-3) to 2×10^5 cells/mL. • MV-4-11: resuspend in growth media to 5×10^5 cells/mL. • SKNSH: resuspend in growth media to 2×10^4 cells/mL. The cells are plated (50 μL, 150 μL for SKNSH cells) in each well of a 96-well dish (Corning 3610) and incubated at 37° C. in 5% CO2 overnight, cells plated to a final concentration of cells as follows: • BaF3: 10,000 cells per well. • MV-4-11: 25,000 cells per well. • SKNSH: 3,000 cells per well. On day 2, compound at a maximum concentration of 5 mM is serially diluted 1:3 for a total of 8 point titration with DMSO as a control. A 1 μL aliquot of each dilution point is added to 249 μL growth media and 50 μL is added to a well containing cells, providing 10 μM compound for the maximum concentration point. The cells are incubated for 3 days at 37° C. in 5% CO2. For SKNSH cells, a 0.75 μL aliquot of appropriate dilution in DMSO is added to 150 μL of cells. On day 5, ATPlite 1 step Luminescence Assay System (Perkin Elmer #6016739) is brought to room temperature along with the cell cultures. ATPlite is added to each well as follows: • BaF3: 25 μL per well. • MV-4-11: 40 μL per well. • SKNSH: 20 μL per well. The cells are incubated at room temperature for 10 minutes, then luminescence is read on Safire reader. The measured luminescence correlates directly with cell number, such that the reading as a function of compound concentration is used to determine the IC50 value.
(§2) It is understood that the results of these assays may vary as assay conditions are varied. Inhibition levels determined under the conditions described herein represent a relative activity for the compounds tested under the specific conditions employed. The cell based assays are likely to show variability due to the complexity of the system and the sensitivity thereof to any changes in the assay conditions. […] Results for compounds that are tested and show substantially no inhibition below the highest tested concentration are represented as “-” in the tables below. In some instances, the compounds were not tested in all of the assays, or assay results were not valid, as indicated by NA in the tables below.

The subject of a further assay is SKNSH cells. As to the kind of experiment: SKNSH (human neuroblastoma) cell proliferation assay (ATPlite). The assay is classed as cell-based. The conditions noted are these: SK-N-SH, read-out: Inhibition of Cell Proliferation IC50, SKNSH. The method, then: as §1, §2
For orientation: Cellular ATP, detected with luciferase, serves as a proxy for viable cell number.

For a further assay, the target named is Fms kinase (Homo sapiens, UniProt P07333). As to the kind of experiment: Fms kinase biochemical activity assay (AlphaScreen, biotin-(E4Y)10 phosphorylation). The conditions noted are these: 100 μM ATP; read-out: Biochemical Inhibition IC50 Fms. On the procedure: In one assay the biochemical activity IC50 values are determined with respect to inhibition of Fms kinase activity, where inhibition of phosphorylation of a peptide substrate is measured as a function of compound concentration. Compounds to be tested, dissolved in DMSO (1 μL), are added to a white 384-well plate (Costar #3705). Working stocks of Fms kinase (Invitrogen #PV3249), biotin-(E4Y)10 substrate (Upstate Biotech, Cat#12-440), and ATP (Sigma, Cat#A-3377) are prepared in 25 mM Hepes pH 7.5, 0.5 mM MgCl2, 2 mM MnCl2, 2 mM DTT, 0.01% BSA, and 0.01% Tween-20. All components are added to the 384-well plate for a final concentration of 1 ng/well Fms, 30 nM biotin-(E4Y)10 (Upstate Biotechnology) and 100 μM ATP in a volume of 20 μL. Each sample is at 5% DMSO. The plate is then incubated for 20 minutes at 30° C. Just before use, working stocks of donor and acceptor beads from the AlphaScreen PY20 Detection Kit (PerkinElmer, Cat#676601M) are prepared in 25 mM Hepes pH 7.5, pH 7.4, 100 mM EDTA, 0.01% BSA. To stop the reaction, the plate is uncovered in the dark and 5 μL of Donor Beads solution (Streptavidin beads) is added to each well. The plate is incubated at room temperature for 20 minutes. Five microliters of Acceptor Beads solution (PY20 coated beads) are then added to each well. The final concentration of each bead is 10 μg/mL. The plates are incubated at room temperature for 60 minutes. Fluorescence signal is recorded on the Envision reader. Phosphorylated substrate results in binding of the PY20 antibody and association of the donor and acceptor beads such that signal correlates with kinase activity. The signal vs. compound concentration is used to determine the IC50.
(In general: Alpha assays give light when donor and acceptor beads are brought close together.)

Chain of Fms kinase (P07333 20-972): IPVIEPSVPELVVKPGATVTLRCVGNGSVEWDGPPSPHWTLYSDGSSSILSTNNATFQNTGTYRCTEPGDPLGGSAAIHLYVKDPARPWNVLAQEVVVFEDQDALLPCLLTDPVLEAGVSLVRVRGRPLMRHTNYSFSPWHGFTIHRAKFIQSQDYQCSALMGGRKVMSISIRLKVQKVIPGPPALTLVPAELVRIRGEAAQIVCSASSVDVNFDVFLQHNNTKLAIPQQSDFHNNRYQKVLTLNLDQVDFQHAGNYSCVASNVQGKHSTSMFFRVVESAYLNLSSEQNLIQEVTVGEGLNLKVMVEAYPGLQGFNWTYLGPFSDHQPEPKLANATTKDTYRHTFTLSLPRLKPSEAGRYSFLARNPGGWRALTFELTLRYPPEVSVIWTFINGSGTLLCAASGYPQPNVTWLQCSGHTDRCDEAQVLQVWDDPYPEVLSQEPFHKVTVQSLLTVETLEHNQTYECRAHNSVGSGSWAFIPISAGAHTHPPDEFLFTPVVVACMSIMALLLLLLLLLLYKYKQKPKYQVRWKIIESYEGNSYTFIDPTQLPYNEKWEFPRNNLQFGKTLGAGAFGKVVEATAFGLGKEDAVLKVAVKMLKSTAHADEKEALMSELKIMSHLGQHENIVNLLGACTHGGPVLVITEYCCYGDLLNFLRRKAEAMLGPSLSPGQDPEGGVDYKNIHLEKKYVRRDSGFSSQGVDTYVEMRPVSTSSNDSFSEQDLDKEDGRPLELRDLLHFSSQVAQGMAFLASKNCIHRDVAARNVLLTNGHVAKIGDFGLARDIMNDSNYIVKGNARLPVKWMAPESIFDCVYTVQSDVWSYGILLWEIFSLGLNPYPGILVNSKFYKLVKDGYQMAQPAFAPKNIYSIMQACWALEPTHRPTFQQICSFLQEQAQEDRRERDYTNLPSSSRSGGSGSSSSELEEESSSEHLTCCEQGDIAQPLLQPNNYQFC

For the molecule `CCc1ccc(Nc2ccc(C(=O)c3c[nH]c4ncnc(N)c34)c(F)n2)cn1` [Compound P-4065, (4-amino-7H-pyrrolo[2,3-d]pyrimidin-5-yl)-[6-[(6-ethyl-3-pyridyl)amino]-2-fluoro-3-pyridyl]methanone], the IC50 on BCR-FMS BaF3 cells is less than 100 nM; in the assay on SKNSH cells, less than 1000 nM; on Fms kinase, less than 10 nM.

In the case of `CNc1ncnc2[nH]cc(C(=O)c3ccc(NC4CCC(F)(F)CC4)nc3F)c12` [Compound P-4063, [6-[(4,4-difluorocyclohexyl)amino]-2-fluoro-3-pyridyl]-[4-(methylamino)-7H-pyrrolo[2,3-d]pyrimidin-5-yl]methanone], the IC50 was less than 100 nM on BCR-FMS BaF3 cells, less than 1000 nM with SKNSH cells and less than 10 nM on Fms kinase.

For `COc1ccc(Nc2ccc(C(=O)c3c[nH]c4ncnc(NC5CCC(F)(F)CC5)c34)c(F)n2)cn1` [Compound P-4056, [4-[(4,4-difluorocyclohexyl)amino]-7H-pyrrolo[2,3-d]pyrimidin-5-yl]-[2-fluoro-6-[(6-methoxy-3-pyridyl)amino]-3-pyridyl]methanone], the IC50 at BCR-FMS BaF3 cells is less than 1000 nM; in the assay on SKNSH cells, less than 1000 nM; on Fms kinase, less than 100 nM.

Turning to `O=C(c1ccc(NC2CCC(F)(F)CC2)nc1Cl)c1c[nH]c2ncnc(NCC(F)(F)F)c12` [Compound P-4057, [2-chloro-6-[(4,4-difluorocyclohexyl)amino]-3-pyridyl]-[4-(2,2,2-trifluoroethylamino)-7H-pyrrolo[2,3-d]pyrimidin-5-yl]methanone], the IC50 is less than 1000 nM on BCR-FMS BaF3 cells, less than 10000 nM in the assay on SKNSH cells and less than 100 nM on Fms kinase.

As to `Cc1cnc2[nH]cc(Cc3cnc(Nc4ccc(F)cc4)nc3)c2c1` [Compound P-3010, (4-Fluoro-phenyl)-[5-(5-methyl-1H-pyrrolo[2,3-b]pyridin-3-ylmethyl)-pyrimidin-2-yl]-amine], the IC50 was less than 100 nM on BCR-FMS BaF3 cells and less than 10 nM at Fms kinase.

As for `CCC(CC)Nc1ncnc2[nH]cc(C(=O)c3ccc(Nc4ccc(OC)nc4)nc3F)c12` [Compound P-4077, [4-(1-ethylpropylamino)-7H-pyrrolo[2,3-d]pyrimidin-5-yl]-[2-fluoro-6-[(6-methoxy-3-pyridyl)amino]-3-pyridyl]methanone], the IC50 on BCR-FMS BaF3 cells is less than 10 nM; on Fms kinase it was less than 100 nM.

Turning to `CCC(C)Nc1ncnc2[nH]cc(C(=O)c3ccc(Nc4ccc(OC)nc4)nc3F)c12` (stereo not shown) [Compound P-4078, [2-fluoro-6-[(6-methoxy-3-pyridyl)amino]-3-pyridyl]-[4-(sec-butylamino)-7H-pyrrolo[2,3-d]pyrimidin-5-yl]methanone], the IC50 at BCR-FMS BaF3 cells and on Fms kinase was less than 10 nM throughout.

For `COc1ccc(Nc2ccc(C(=O)c3c[nH]c4ncnc(NCC5CCCO5)c34)c(F)n2)cn1` (stereo not shown) [Compound P-4073, [2-fluoro-6-[(6-methoxy-3-pyridyl)amino]-3-pyridyl]-[4-(tetrahydrofuran-2-ylmethylamino)-7H-pyrrolo[2,3-d]pyrimidin-5-yl]methanone], the IC50 on BCR-FMS BaF3 cells and at Fms kinase was less than 100 nM throughout.

As to `CNc1ncnc2[nH]cc(C(=O)c3ccc(Nc4ccc(C)nc4)nc3F)c12` [Compound P-4115, [2-fluoro-6-[(6-methyl-3-pyridyl)amino]-3-pyridyl]-[4-(methylamino)-7H-pyrrolo[2,3-d]pyrimidin-5-yl]methanone], the IC50 at BCR-FMS BaF3 cells and at Fms kinase was less than 10 nM throughout.

For `CCc1ccc(Nc2ccc(C(=O)c3c[nH]c4ncnc(NCC5CC5)c34)c(F)n2)cn1` [Compound P-4118, [4-(cyclopropylmethylamino)-7H-pyrrolo[2,3-d]pyrimidin-5-yl]-[6-[(6-ethyl-3-pyridyl)amino]-2-fluoro-3-pyridyl]methanone], the IC50 is less than 10 nM at BCR-FMS BaF3 cells and less than 100 nM on Fms kinase.

For the molecule `CCN1CCC(Nc2ncnc3[nH]cc(C(=O)c4ccc(Nc5ccc(OC)nc5)nc4F)c23)CC1` [Compound P-4074, [4-[(1-ethyl-4-piperidyl)amino]-7H-pyrrolo[2,3-d]pyrimidin-5-yl]-[2-fluoro-6-[(6-methoxy-3-pyridyl)amino]-3-pyridyl]methanone], the IC50 on BCR-FMS BaF3 cells is less than 1000 nM; on Fms kinase, less than 100 nM.

With `COc1ccc(Nc2ccc(C(=O)c3c[nH]c4ncnc(N5CCCCC5)c34)c(F)n2)cn1` [Compound P-4069, [2-fluoro-6-[(6-methoxy-3-pyridyl)amino]-3-pyridyl]-[4-(1-piperidyl)-7H-pyrrolo[2,3-d]pyrimidin-5-yl]methanone], the values for the IC50 on BCR-FMS BaF3 cells and on Fms kinase were greater than 1000 nM and less than 1000 nM, respectively.

Turning to `CCc1ccc(Nc2ccc(C(=O)c3c[nH]c4ncnc(NCCOC)c34)c(F)n2)cn1` [Compound P-4119, [6-[(6-ethyl-3-pyridyl)amino]-2-fluoro-3-pyridyl]-[4-(2-methoxyethylamino)-7H-pyrrolo[2,3-d]pyrimidin-5-yl]methanone], the IC50 at BCR-FMS BaF3 cells and on Fms kinase was less than 10 nM each time.

`CCCNc1ncnc2[nH]cc(C(=O)c3ccc(Nc4ccc(C)nc4)nc3F)c12` [Compound P-4114, [2-fluoro-6-[(6-methyl-3-pyridyl)amino]-3-pyridyl]-[4-(propylamino)-7H-pyrrolo[2,3-d]pyrimidin-5-yl]methanone]: the IC50 on BCR-FMS BaF3 cells and on Fms kinase was less than 10 nM throughout.

For the molecule `O=C(c1ccc(NC2CCC(F)(F)CC2)nc1F)c1c[nH]c2ncnc(NCC(F)(F)F)c12` [Compound P-4061, [6-[(4,4-difluorocyclohexyl)amino]-2-fluoro-3-pyridyl]-[4-(2,2,2-trifluoroethylamino)-7H-pyrrolo[2,3-d]pyrimidin-5-yl]methanone], the IC50 on BCR-FMS BaF3 cells and on Fms kinase was less than 100 nM each time.
